Assay results taken from ChEMBL document CHEMBL4118249, “Discovery and Identification of Small Molecules as Methuosis Inducers with in Vivo Antitumor Activities” (J Med Chem, 2018).

What was measured:
MDA-MB-231 [1] = experiment: Induction of methuosis in human MDA-MB-231 cells assessed as increase in vacuole formation at 1 uM after 24 hrs by phase contrast microscopic analysis relative to control; type: functional
MDA-MB-231 [2] = experiment: Induction of methuosis in human MDA-MB-231 cells assessed as increase in vacuole formation at 10 uM after 24 hrs by phase contrast microscopic analysis relative to control; type: functional

`Cc1ccc(NC(=O)c2cccc(C(F)(F)F)c2)cc1Nc1cc(-c2ccccc2)nc2[nH]ccc12` gave an Activity (MDA-MB-231 [1]) of 0% and an Activity (MDA-MB-231 [2]) of 0%.
With `Cc1cc(NC(=O)c2ccc(C)c(Nc3cc(-c4cccnc4)nc4[nH]ccc34)c2)n(C)n1` the Activity (MDA-MB-231 [1]) was 2.48% and the Activity (MDA-MB-231 [2]) was 95.24%.
`O=C(Nc1cccc(Nc2cc(-c3cccnc3)nc3[nH]ccc23)c1)c1cccc(C(F)(F)F)c1` showed an Activity (MDA-MB-231 [1]) of 96.61% and an Activity (MDA-MB-231 [2]) of 98.98%.
Compound `Cc1ccc(C(=O)Nc2cccc(C(F)(F)F)c2)cc1Nc1cc(-c2cccnc2)nc2c1ccn2C` has an Activity (MDA-MB-231 [1]) of 3.63% and an Activity (MDA-MB-231 [2]) of 70.96%.
For `Cc1ccc(C(=O)Nc2cccc(C(F)(F)F)c2)cc1Nc1cc(-c2ccncc2)nc2[nH]ccc12`, the Activity (MDA-MB-231 [1]) was 0% and the Activity (MDA-MB-231 [2]) was 1.94%.
`Cc1ccc(NC(=O)c2cccc(C(F)(F)F)c2)cc1Nc1cc(-c2cccc(Cl)c2)nc2[nH]ccc12` was tested, and the Activity (MDA-MB-231 [1]) was 0.03% and the Activity (MDA-MB-231 [2]) was 0.33%.
